These are literature values, as cited in PMC4215638, “J-147 a Novel Hydrazide Lead Compound to Treat Neurodegeneration: CeeTox™ Safety and Genotoxicity Analysis” (Journal of neurology & neurophysiology, 2013).

Usually EC50 stands for the concentration at which the effect is half-maximal.

One data set has as its system MAOB. Further details: method as in PMID 23673233. The note with it: read-out: EC50 MAOB inhibition; cited from earlier work.
The subject of a further data set is dopamine transporter. Further details: method as in PMID 23673233. The following applies: read-out: EC50 dopamine transporter inhibition; cited from earlier work.

`COc1cccc(/C=N/N(C(=O)C(F)(F)F)c2ccc(C)cc2C)c1` [J-147, (E)-N-(2,4-Dimethylphenyl)-2,2,2-trifluoro-N′-(3-methoxybenzylidene) acetohydrazide]: the results for the EC50 in the data set on MAOB and in the data set with dopamine transporter were 1880 nM and 650 nM, respectively.
